From US20220211692A1, “Modulators of the Cystic Fibrosis Transmembrane Conductance Regulator Protein and Methods of Use” (AbbVie Global Enterprises Ltd., priority 2021, published 2022) come the findings set out here.

For one assay, the target named is T1, F508del/F508del CFTR (Homo sapiens, UniProt P13569, DEL508-508).
T1 construct: cells isolated from CF patients with the homozygous mutation; endogenous in cells; host or cells: primary human bronchial epithelial (hBE) cells from CF patients homozygous for F508del
T1 sequence (P13569 with tags, fused parts or gaps DEL508-508): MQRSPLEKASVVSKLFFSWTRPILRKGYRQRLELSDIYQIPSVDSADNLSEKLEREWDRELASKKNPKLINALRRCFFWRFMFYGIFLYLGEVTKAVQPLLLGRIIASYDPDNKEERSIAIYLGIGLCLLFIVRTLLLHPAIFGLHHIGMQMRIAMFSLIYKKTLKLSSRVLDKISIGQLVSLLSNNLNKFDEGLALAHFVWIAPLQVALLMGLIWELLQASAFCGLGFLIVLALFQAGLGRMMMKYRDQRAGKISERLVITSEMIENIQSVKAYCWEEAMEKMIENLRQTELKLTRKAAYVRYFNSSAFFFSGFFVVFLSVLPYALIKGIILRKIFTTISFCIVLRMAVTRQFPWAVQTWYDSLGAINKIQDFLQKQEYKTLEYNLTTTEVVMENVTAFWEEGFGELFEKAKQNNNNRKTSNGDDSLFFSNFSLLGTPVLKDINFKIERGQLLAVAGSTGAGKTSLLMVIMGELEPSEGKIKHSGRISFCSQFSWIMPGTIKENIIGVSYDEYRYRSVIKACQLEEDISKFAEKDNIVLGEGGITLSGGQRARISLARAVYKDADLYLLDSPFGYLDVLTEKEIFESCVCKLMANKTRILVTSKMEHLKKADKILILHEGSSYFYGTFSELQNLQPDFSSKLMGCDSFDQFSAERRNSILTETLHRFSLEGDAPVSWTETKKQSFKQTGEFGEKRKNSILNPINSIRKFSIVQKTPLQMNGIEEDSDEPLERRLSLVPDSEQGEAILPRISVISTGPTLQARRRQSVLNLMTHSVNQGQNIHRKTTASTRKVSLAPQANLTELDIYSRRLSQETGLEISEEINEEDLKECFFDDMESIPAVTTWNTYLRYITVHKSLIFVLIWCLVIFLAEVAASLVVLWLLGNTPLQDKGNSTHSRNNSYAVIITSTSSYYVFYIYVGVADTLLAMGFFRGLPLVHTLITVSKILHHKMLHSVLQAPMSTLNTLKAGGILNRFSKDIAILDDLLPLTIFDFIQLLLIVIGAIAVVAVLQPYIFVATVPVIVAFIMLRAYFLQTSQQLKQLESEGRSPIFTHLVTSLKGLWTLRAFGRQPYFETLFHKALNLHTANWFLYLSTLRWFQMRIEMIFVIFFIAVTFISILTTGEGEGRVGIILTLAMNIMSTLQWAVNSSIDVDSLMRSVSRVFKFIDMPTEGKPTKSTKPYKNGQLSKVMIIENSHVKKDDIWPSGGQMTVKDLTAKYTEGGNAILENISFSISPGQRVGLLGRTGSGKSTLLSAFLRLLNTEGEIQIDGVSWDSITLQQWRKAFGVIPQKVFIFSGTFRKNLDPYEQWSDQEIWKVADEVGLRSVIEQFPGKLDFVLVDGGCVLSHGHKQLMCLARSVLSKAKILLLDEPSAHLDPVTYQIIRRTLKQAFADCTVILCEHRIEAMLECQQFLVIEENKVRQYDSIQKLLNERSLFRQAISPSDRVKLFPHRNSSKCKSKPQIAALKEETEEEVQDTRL
The assay can be described thus: Trans-Epithelial Current Clamp (TECC) assay using primary human bronchial epithelial cells. The conditions noted are these: for Emax (% Dual): maximum percent activity relative to positive control (co-corrector 0.15 μM + potentiator 0.45 μM = 100%); for EC50: primary hBE cells F508del/F508del, test corrector with co-corrector and potentiator, 18-24 hours, equivalent CFTR current. In kind it is cell-based. The procedure, abridged:
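Readout is the equivalent CFTR current (IEQ, from offset-corrected VT and RT) plus AUC from forskolin peak to bumetanide addition, recorded on TECC-24 at 36.5° C. Beforehand, homozygous F508del hBE cultures received correctors with co-corrector and potentiator basolaterally for 18-24 h at 37° C.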

The next assay deals with T2, F508delCFTR (Homo sapiens, UniProt P13569, DEL508-508).
T2 construct: expressed in transfected cells; host or cells: CFBE41o- human lung derived epithelial cell line, doxycycline-induced expression
T2 sequence (P13569 with tags, fused parts or gaps DEL508-508): as above
Nature of the assay: Cell Surface Expression-Horse Radish Peroxidase (CSE-HRP) assay in CFBE41o-F508delCFTR-HRP cells. Format: cell-based. As to conditions: for EC50: CFBE41o-F508delCFTR-HRP cells, 18-24 hours at 33° C.; for Maximum % activity (with co-corrector) / Emax: normalized to on-plate positive control; for Emax: read-out: Maximum % activity (without co-corrector). The procedure, abridged:
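Doxycycline (0.5 μg/mL) induced HRP-tagged F508delCFTR in CFBE41o- cells for 68-72 h at 37 °C; compounds ± co-corrector (2 μM) then ran 18-24 h at 33 °C, 8-point 3-fold series from 20 or 30 μM. After DPBS washes, surface HRP was read by luminol luminescence. Activity was normalised to the on-plate positive control versus DMSO, and EC50 was fitted by variable-slope sigmoid from triplicate plates.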

Setting [1] is: with co-corrector 2 μM, read-out: EC50 (with co-corrector).
[2] abbreviates: without co-corrector, read-out: EC50 (without co-corrector).

SMILES strings stand for the structures. Read-outs that look alike come from different tables or passages of the source. A value given as a limit tells only on which side of the number the result lay.

Consider `COc1ccc(C)cc1[C@@]1(C(=O)NS(=O)(=O)c2cccc3nc(C)ccc23)C[C@H](OC)CO1` [Example 28, (2R,4S)-4-methoxy-2-(2-methoxy-5-methylphenyl)-N-(2-methylquinoline-5-sulfonyl)oxolane-2-carboxamide], for which the “Emax (% Dual)” value on F508del/F508del CFTR is recorded as 182 % Dual. The EC50 (usually the concentration needed to bring the measured effect to its halfway point) was 1100 nM at F508del/F508del CFTR, 3470 nM at F508delCFTR (setting [1]) and 4110 nM at F508delCFTR (setting [2]). The “Maximum % activity (with co-corrector)” value at F508delCFTR (with co-corrector 2 μM) came out at 513%. Besides, the Emax on F508delCFTR (without co-corrector) is 180%.
For `COc1ccc(C)cc1[C@@]1(C(=O)NS(=O)(=O)c2cccc3nc(C)ccc23)C[C@@H](OC)CO1` [Example 29, (2R,4R)-4-methoxy-2-(2-methoxy-5-methylphenyl)-N-(2-methylquinoline-5-sulfonyl)oxolane-2-carboxamide], the “Emax (% Dual)” value at F508del/F508del CFTR is given as 230 % Dual. The EC50 on F508del/F508del CFTR came out at 164 nM; on F508delCFTR (setting [1]) it was 1210 nM; at F508delCFTR (setting [2]), 1860 nM. In addition, on F508delCFTR (with co-corrector 2 μM), the “Maximum % activity (with co-corrector)” value worked out at 587%. On F508delCFTR (without co-corrector), the Emax stood at 213%.
In the case of `COc1ccc(C)cc1[C@@]1(C(=O)NS(=O)(=O)c2cccc3nc(C)ccc23)C[C@](C)(OC)CO1` [Example 30, (2R,4S)-4-methoxy-2-(2-methoxy-5-methylphenyl)-4-methyl-N-(2-methylquinoline-5-sulfonyl)oxolane-2-carboxamide], at F508del/F508del CFTR, the “Emax (% Dual)” value turned out to be 197 % Dual and the EC50 was 331 nM. For the same compound, the EC50 at F508delCFTR (setting [2]) was found to be 2630 nM. Also, the Emax on F508delCFTR (without co-corrector) is 301%.
For `COc1ccc(C)cc1[C@]1(C(=O)NS(=O)(=O)c2cccc3nc(C)ccc23)C[C@@](C)(OC)CO1` [Example 31, (2S,4R)-4-methoxy-2-(2-methoxy-5-methylphenyl)-4-methyl-N-(2-methylquinoline-5-sulfonyl)oxolane-2-carboxamide], in that order: 117 % Dual, more than 5000 nM, 5160 nM and 100%.
With `COc1ccc(C)cc1[C@@]1(C(=O)NS(=O)(=O)c2cccc3nc(C)ccc23)C[C@H](c2ccccc2)CO1` [Example 33, (2R,4R)-2-(2-methoxy-5-methylphenyl)-N-(2-methylquinoline-5-sulfonyl)-4-phenyloxolane-2-carboxamide], the “Emax (% Dual)” value at F508del/F508del CFTR came out at 264 % Dual. In addition, the EC50 on F508del/F508del CFTR is 20.1 nM; on F508delCFTR (setting [1]) it was 1630 nM; at F508delCFTR (setting [2]) it was 2300 nM. Moreover, on F508delCFTR (without co-corrector), the Emax turned out to be 756%.
In the case of `COc1ccc(C)cc1[C@]1(C(=O)NS(=O)(=O)c2cccc3nc(C)ccc23)C[C@@H](c2ccccc2)CO1` [Example 36, (2S,4S)-2-(2-methoxy-5-methylphenyl)-N-(2-methylquinoline-5-sulfonyl)-4-phenyloxolane-2-carboxamide], the “Emax (% Dual)” value on F508del/F508del CFTR worked out at 255 % Dual. The EC50 turned out to be 31 nM on F508del/F508del CFTR, 810 nM at F508delCFTR (setting [1]) and 1590 nM at F508delCFTR (setting [2]). In addition, the Emax on F508delCFTR (without co-corrector) worked out at 443%.
On to `COc1ccc(C)cc1[C@]1(C(=O)NS(=O)(=O)c2cccc3nc(C)ccc23)C[C@H](c2ccccc2)CO1` [Example 37, (2S,4R)-2-(2-methoxy-5-methylphenyl)-N-(2-methylquinoline-5-sulfonyl)-4-phenyloxolane-2-carboxamide], for which the “Emax (% Dual)” value on F508del/F508del CFTR is listed as 305 % Dual. Further, the results for the EC50 on F508del/F508del CFTR, on F508delCFTR (setting [1]) and at F508delCFTR (setting [2]) were 38.3 nM, 3210 nM and 3630 nM, respectively. Moreover, on F508delCFTR (with co-corrector 2 μM), the “Maximum % activity (with co-corrector)” value is reported as 573%. Also, the Emax on F508delCFTR (without co-corrector) came to 217%.
As to `COc1ccccc1[C@H]1CO[C@@](C(=O)NS(=O)(=O)c2cccc3nc(C)ccc23)(c2cc(C)ccc2OC)C1` [Example 38, (2R,4S)-2-(2-methoxy-5-methylphenyl)-4-(2-methoxyphenyl)-N-(2-methylquinoline-5-sulfonyl)oxolane-2-carboxamide], the “Emax (% Dual)” value at F508del/F508del CFTR is listed as 244 % Dual. Also, the EC50 at F508del/F508del CFTR worked out at 14.1 nM; on F508delCFTR (setting [1]), 330 nM; at F508delCFTR (setting [2]), 980 nM. At F508delCFTR (without co-corrector), the Emax is 679%.
The corresponding values for `COc1ccccc1[C@@H]1CO[C@@](C(=O)NS(=O)(=O)c2cccc3nc(C)ccc23)(c2cc(C)ccc2OC)C1` [Example 39, (2R,4R)-2-(2-methoxy-5-methylphenyl)-4-(2-methoxyphenyl)-N-(2-methylquinoline-5-sulfonyl)oxolane-2-carboxamide] are 239 % Dual, 26.1 nM, 200 nM, 470 nM and 470%.
On to `COc1ccccc1[C@@H]1CO[C@@](C(=O)NS(=O)(=O)c2cccc3nc(N)ccc23)(c2cc(C)ccc2OC)C1` [Example 40, (2R,4R)—N-(2-aminoquinoline-5-sulfonyl)-2-(2-methoxy-5-methylphenyl)-4-(2-methoxyphenyl)oxolane-2-carboxamide], for which the “Emax (% Dual)” value on F508del/F508del CFTR worked out at 208 % Dual. In addition, the concentration for a half-maximal effect (EC50) was found to be 2.6 nM at F508del/F508del CFTR, 160 nM at F508delCFTR (setting [1]) and 440 nM at F508delCFTR (setting [2]). The Emax on F508delCFTR (without co-corrector) worked out at 705%.
For `COc1ccc(C)cc1[C@@]1(C(=O)NS(=O)(=O)c2cccc3nc(N)ccc23)C[C@H](c2ccccc2)CO1` [Example 41, (2R,4R)—N-(2-aminoquinoline-5-sulfonyl)-2-(2-methoxy-5-methylphenyl)-4-phenyloxolane-2-carboxamide], in that order: 274 % Dual, 19.4 nM, 270 nM, 760 nM and 872%.
On to `COc1cccc([C@@H]2CO[C@@](C(=O)NS(=O)(=O)c3cccc4nc(C)ccc34)(c3cc(C)ccc3OC)C2)c1` [Example 42, (2R,4R)-2-(2-methoxy-5-methylphenyl)-4-(3-methoxyphenyl)-N-(2-methylquinoline-5-sulfonyl)oxolane-2-carboxamide], for which the “Emax (% Dual)” value at F508del/F508del CFTR turned out to be 237 % Dual. For the same compound, the EC50 at F508del/F508del CFTR was found to be 11.1 nM; at F508delCFTR (setting [1]) it was 570 nM; at F508delCFTR (setting [2]), 1120 nM. At F508delCFTR (without co-corrector), the Emax came out at 751%.
Take `COc1ccc([C@@H]2CO[C@@](C(=O)NS(=O)(=O)c3cccc4nc(C)ccc34)(c3cc(C)ccc3OC)C2)cc1` [Example 44, (2R,4R)-2-(2-methoxy-5-methylphenyl)-4-(4-methoxyphenyl)-N-(2-methylquinoline-5-sulfonyl)oxolane-2-carboxamide]: the “Emax (% Dual)” value on F508del/F508del CFTR was determined as 335 % Dual. Further, the values for the EC50 on F508del/F508del CFTR, on F508delCFTR (setting [1]) and on F508delCFTR (setting [2]) were 11.6 nM, 300 nM and 600 nM, respectively. Further, the Emax at F508delCFTR (without co-corrector) was 512%.
In the case of `COc1ccc([C@H]2CO[C@@](C(=O)NS(=O)(=O)c3cccc4nc(C)ccc34)(c3cc(C)ccc3OC)C2)cc1` [Example 45, (2R,4S)-2-(2-methoxy-5-methylphenyl)-4-(4-methoxyphenyl)-N-(2-methylquinoline-5-sulfonyl)oxolane-2-carboxamide], the “Emax (% Dual)” value at F508del/F508del CFTR is listed as 229 % Dual. The EC50 on F508del/F508del CFTR came out at 36.3 nM; on F508delCFTR (setting [1]), 440 nM; on F508delCFTR (setting [2]), 610 nM. Also, the “Maximum % activity (with co-corrector)” value at F508delCFTR (with co-corrector 2 μM) stood at 911%. The Emax at F508delCFTR (without co-corrector) was determined as 386%.
